Measured values as given in patent publication US12642809B2, “Fucosylation and immune modulation in cancer” (H. LEE MOFFITT CANCER CENTER AND RESEARCH INSTITUTE, INC., priority 2019, dated 2026).

Columns and labels:
HLA-DRB1 = test: qRT-PCR and immunoblot of HLA-DRB1 in melanoma cells; format: cell-based, human; settings: 250 μM, panel of melanoma cell lines
Protocol: Cells were lysed on ice in RIPA lysis buffer (25 mM Tris-HCl pH 7.6, 150 mM NaCl, 5 mM EDTA, 1% NP-40 or 1% Triton X-100, 1% sodium deoxycholate, 0.1% SDS in diH2O+protease and phosphatase inhibitors (ThermoFisher Scientific (Waltham, MA)), briefly sonicated, pelleted, and the resulting lysates were normalized by protein concentration using DC assay (BioRad Laboratories, (Hercules, CA)). The indicated samples were subjected to (12%) SDS-PAGE and immunoblot analysis using the indicated antibodies. Immunoblot imaging and analysis was performed using either an Odyssey FC scanner and ImageStudio (LiCor Biosciences, Lincoln, NE) or film.
RNA from cells subjected to the indicated treatments was extracted using Gene Elute Mammalian Total RNA Extraction System (Millipore Sigma (St. Louis, MO)). RNA was reversed transcribed to cDNA using High-Capacity cDNA Reverse Transcription Kit (ThermoFisher Scientific (Waltham, MA)). qRT-PCR analysis was performed using FastStart Universal SYBR Green Master Mix (Rox) (Roche Diagnostics, (Indianapolis, IN)) using a BioRad CFX96 Real-time system (BioRad Laboratories, (Hercules, CA)). The qRT-PCR cycles used were as follows: 95° C. for 10 min, 35 cycles of 95° C. for 15 seconds, 55° C. for 60 seconds, and 72° C. for 30 seconds. Expression of the indicated genes was normalized to histone H3A expression. […]

MDSCs [1] = test: IFNγ of T cells co-cultured with pre-treated MDSCs; format: cell-based, BalbC mice; settings: CD3/CD28 bead activation
Excerpt: Shown are IFNγ production/secretion levels of combined bulk CD4^+ and CD8^+ T cells from BalbC mice treated with either DMSO (black column) or L-fucose (red column) or co-cultured with MDSCs pre-treated with DMSO (aquamarine column) or with L-fucose (purple column). The T cells were activated using CD3/CD28 beads.

SW1 tumors = SW1 tumors in immunodeficient NSG mice fed with or without L-fuc; format: in vivo, mouse
Protocol: Four-to-six-week-old female C3HeN and male C57BL6 mice were purchased from Charles Rivers Laboratories for the indicated experiments. Four-to-six-week-old male NSG mice from the Lau laboratory breeding colony were used for the indicated experiments. Mice were housed in the Comparative Medicine Facility at H. Lee Moffitt Cancer Center and Research Institute. Mouse tumor volumes were measured using length, width and depth divided by 2. Generally, 10 mice were assigned to each indicated treatment cohort, and 1×10^6 melanoma cells were subcutaneously injected into the right rear flanks of the recipient mice. At each experimental endpoint, mice were humanely euthanized using CO2 inhalation in accordance to the American Veterinary Medical Association guidelines. […] All experiments were approved by the Institutional Animal Care and Use Committee (IACUC) in accordance with the National Research Council guidelines.
SW1 murine mouse melanoma cells were subcutaneously injected into the right rear flanks of NSG mice. After 7 days, when the tumors reached ˜150 mm^3, the mice were either supplemented with or without 100 mM L-fucose (Biosynth (Oak Terrace, IL)) via drinking water, which was provided ad libitum. When the tumors reached 2 cm^3, the animals were sacrificed.

1205Lu melanoma cells = test: LDH-release NK cell killing of pre-treated 1205Lu melanoma cells; format: cell-based; settings: 250 μM pre-treatment, 8 h co-culture, immortalized and primary human NK cells
Protocol: The possibility that tumor fucosylation can directly activate the tumor cell-killing activity of NK cells was explored. To assay for this possibility, a lactate dehydrogenase (LDH)-release-based assay was used in which the fucosylation of LU1205 melanoma cells was modulated prior to co-culture with NK cells. Specifically, primary NK cells isolates (5A) or immortalized NK92 cell line (5B) were co-cultured with 1205Lu melanoma cells that were pre-treated with DMSO, 250 μM pan-fucosyltransferase inhibitor (FUTi), or 250 μM L-fucose for 8 hours. Non-radioactive LDH-release cytotoxicity assay was performed to measure extent of NK cell-mediated killing. […] Immunoblot analysis using AAL lectin (another fucose-binding lectin) was performed to confirm the effects of FUTi (5C) or L-fucose (5D) on 1205Lu cells (96 h treatment). (•: […]) (*: […]).

MDSCs [2] = test: T cell proliferation in co-culture with pre-treated MDSCs; format: cell-based; settings: CD3/CD28 activation, CellTrace Violet
Protocol: Shown progressive divisions of CD3/CD28-activated T cells (both CD4+ and CD8+ combined) as affected by co-culture with DMSO (control)-, FUTi (fucosyltransferase inhibitor)-, or L-fucose-pre-treated MDSCs. Undivided T cells are represented by the dark grey column. Divisions were measured by loss of CellTrace™ Violet stain. First division is represented by the light green column; second division is represented by the yellow column; and third division is represented by the navy blue column.

## C[C@H](O)[C@@H](O)[C@@H](O)[C@H](O)C=O [L-fucose]
HLA-DRB1
  HLA-DRB1 mRNA and protein levels: neither HLA-DRB1 mRNA nor protein levels were altered
MDSCs [1]
  MDSC-mediated suppression of T cell IFNγ production/secretion: completely reverts MDSC-mediated T cell suppression
SW1 tumors
  tumor growth with vs without L-fuc: no significant differences
1205Lu melanoma cells
  NK cell-mediated tumor-cell killing: sufficient to induce the tumor-cell killing activity
MDSCs [2]
  effect of pre-treated MDSCs on T cell proliferation: do not
